The values below come from patent publication US4866063A, “Diol metabolites of 7-phenyl-1,2,4-triazolo[2,3-c]pyrimidines-5-amines” (priority 1988, dated 1989).

“Also recorded” adds a separate entry of the source. Like-named read-outs stand apart in the source and are kept apart here.

The conditions of series [1]: cited from earlier work.
Series [2] is described as follows: Cardiotoxicity of compounds I and II in rats.
The conditions of series [3]: rat, in vivo.
Series [4] in a line: Metabolism of compound II in man. It is filed as in vivo.
The nature of series [5]: Metabolism of compound II in the rat. It is filed as in vivo.
The subject of another series is heart or adrenal gland. The series is described as follows: Cardiotoxicity study of compound III in rats (gross and histologic examination, mortality). It is filed as in vivo, female Charles River CD rats. The settings on record: conclusion of the study. How it is done:
(§1) Compound III was administered by gavage at 40 mg/kg, 80 mg/kg, 160 mg/kg and 320 mg/kg to female Charles River CD rats (10/dosage) once daily for three days. One additional group of rats received vehicle for three days to serve as controls. […] Additional groups of rats (3/dosage) were sacrificed two hours after dosing on day 1, blood collected, and samples analyzed to determine plasma concentrations of compound III.

Series [6] in a line: Water solubility compared with precursor compounds. It is filed as physicochemical. The settings on record: vs compounds I and II.
The nature of series [7]: Bioavailability compared with precursor compounds. It is filed as in vivo. The settings on record: vs compounds I and II.
The nature of series [8]: Plasma concentrations of compound III two hours after dosing on day 1. It is filed as in vivo, female Charles River CD rats. The settings on record: for concentration at 2 h: rat, plasma, po, gavage, two hours after dosing on day 1. The method, then:
as §1

For the molecule `CCOCCc1c(-c2ccccc2)nc(N)n2ncnc12` [compound I, 8-(2-ethoxyethyl)-7-phenyl-1,2,4-triazolo[2,3-c]pyrimidine-5-amine], in series [1] (acute, mammals), the Glomerular filtration rate entry is given as “increases” and the Renal blood flow result is “increases”. Also, in series [1] (chronic oral dosing), the Glomerular filtration rate entry is reported as “significant increases”, the Renal blood flow result is recorded as “significant increases” and the Sodium excretion result is listed as “significant increases”. Also, the Cardiotoxicity entry in series [2] is on record as “cardiotoxicity seen”. The “Myocardial lesions and associated changes” value in [3] was “myocardial lesions and associated changes found in rats”.
As for `Nc1nc(-c2ccccc2)c(CCO)c2ncnn12` [compound II, 8-(2-hydroxyethyl)-7-phenyl 1,2,4-triazolo[2,3-c]pyrimidine-5-amine], the “Aliphatic hydroxylation (similar metabolism)” value in series [4] was “not seen in man”. The Cardiotoxicity result in [2] is given as “cardiotoxicity seen”. The “Aliphatic hydroxylation (metabolism)” value in series [5] is “undergoes aliphatic hydroxylation in the rat”. Moreover, the “Myocardial lesions and associated changes” value in series [3] was “myocardial lesions and associated changes found in rats”.
As to `Nc1nc(-c2ccccc2)c(C(O)CO)c2ncnn12` (stereo not shown) [compound III, 8-(1,2-dihydroxyethyl)-7-phenyl-1,2,4-triazolo[2,3-c]pyrimidine-5-amine], the Cardiotoxicity result with heart or adrenal gland is “does not appear to be cardiotoxic; also recorded: no incidence of cardiotoxic side effects in rats”. For the same molecule, the “Water solubility relative to either precursor compound” value in series [6] is on record as “more water soluble”. For the same molecule, the “Bioavailability relative to either precursor compound” value in [7] is listed as “more bioavailable”. Further, the “Plasma concentrations relative to those expected at cardiotoxic dosages of compounds I and II” value in series [8] (40-320 mg/kg) was “well in excess of the concentrations that one might expect to see at cardiotoxic dosages of compounds I and II”. In addition, the concentration at 2 h in [8] (40 mg/kg) stood at 13800 ng/mL; in series [8] (80 mg/kg) it was 19800 ng/mL; in [8] (160 mg/kg) it was 36700 ng/mL; in series [8] (320 mg/kg), 47000 ng/mL.
